Laboratory results published in article PMC2593629 (Bioorganic & medicinal chemistry letters, 2008).
Where two headings read alike, the source gives them in different places.

Key:
CB1 [1] = molecular target: T1, CB1 (Mus musculus, UniProt P47746); assay: biochemical
[2] = tested on: CB1 -/- mouse brain membranes; assay type: biochemical
mice = conditions: mouse
mouse brain MAGL = molecular target: T2, mouse brain MAGL (Mus musculus, UniProt O35678); assay: MAGL activity in mouse brain membranes; assay type: biochemical; conditions: read-out: MAGL IC50
T2 sequence (O35678 1-303): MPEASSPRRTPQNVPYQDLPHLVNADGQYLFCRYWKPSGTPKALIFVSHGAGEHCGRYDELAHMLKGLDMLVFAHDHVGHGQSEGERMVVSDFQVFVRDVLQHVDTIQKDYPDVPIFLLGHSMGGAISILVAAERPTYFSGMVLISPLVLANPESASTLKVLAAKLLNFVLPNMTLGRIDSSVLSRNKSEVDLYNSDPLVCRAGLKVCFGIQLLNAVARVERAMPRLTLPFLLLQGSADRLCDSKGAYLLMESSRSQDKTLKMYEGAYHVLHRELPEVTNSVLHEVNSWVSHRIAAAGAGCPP

[3] = molecular target: eCB1 (CB1 overexpressed in HEK293 cells) (Mus musculus, UniProt P47746); assay type: binding
Chain of eCB1 (CB1 overexpressed in HEK293 cells) (P47746 whole entry): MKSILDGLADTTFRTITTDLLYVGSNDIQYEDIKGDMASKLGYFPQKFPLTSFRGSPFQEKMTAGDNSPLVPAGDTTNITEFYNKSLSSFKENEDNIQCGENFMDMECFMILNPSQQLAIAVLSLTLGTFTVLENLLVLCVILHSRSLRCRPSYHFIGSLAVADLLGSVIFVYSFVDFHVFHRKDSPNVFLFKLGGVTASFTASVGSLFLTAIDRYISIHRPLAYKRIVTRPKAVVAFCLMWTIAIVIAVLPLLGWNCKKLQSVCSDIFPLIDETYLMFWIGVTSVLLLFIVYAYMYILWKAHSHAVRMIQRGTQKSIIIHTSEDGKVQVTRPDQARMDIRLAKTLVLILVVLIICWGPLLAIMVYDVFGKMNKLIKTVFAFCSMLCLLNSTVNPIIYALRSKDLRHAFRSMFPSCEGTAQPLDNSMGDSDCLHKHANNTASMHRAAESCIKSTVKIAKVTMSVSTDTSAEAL

CB1 [4] = molecular target: T1, CB1; assay: biochemical; assay type: binding

T1 sequence (P47746 whole entry): as above

CCCCC/C=C\C/C=C\C/C=C\C/C=C\CCCC(=O)OC(CO)CO [2-AG, 2-arachidonoylglycerol]
EC50 (CB1 [1]; EC50 for stimulation of GTPγS binding): 1000 nM | EC50 (CB1 [1]; EC50 of 2-AG for stimulation of GTPγS binding after preincubation with OP 1): 300 nM | Stimulation of GTPγS binding in CB1 -/- membranes [2]: significant

CCCCCCCCCCCCP(=O)(OCC)Oc1nc(Cl)c(Cl)cc1Cl (centres unmarked) [OP 3]
In vivo effectiveness in modulating behavior and brain 2-AG and AA levels (mice): not effective in vivo

CCCCCCCCCCCCP(=O)(OCC)Oc1ccc(C#N)cc1 (centres unmarked) [OP 4]
IC50 (mouse brain MAGL; substrate 2-AG): 70 nM | IC50 (mouse brain MAGL; substrate [14C]1-oleoylglycerol): 70 nM | In vivo effectiveness in modulating behavior and brain 2-AG and AA levels (mice): very effective in vivo in all respects

CCOP(=O)(OCC)Oc1nc(Cl)c(Cl)cc1Cl [OP 7, chlorpyrifos oxon]
Sensitivity of eCB1 [3H]CP55940 binding [3]: not sensitive

CCCCCCCCCCCCS(=O)(=O)F [OS 9]
In vivo effectiveness in modulating behavior and brain 2-AG and AA levels (mice): same in vivo effects as OP 1 and OP 4

CCCCCCCCS(=O)(=O)F [OS 10]
In vivo effectiveness in modulating behavior and brain 2-AG and AA levels (mice): same in vivo effects as OP 1 and OP 4

CCCCCCC(C)(C)c1ccc([C@@H]2C[C@H](O)CC[C@H]2CCCO)c(O)c1 [[^3H]CP55940]
Kd (CB1 [4]): 0.86 nM
